In patent publication US11685732B2, “MYST family histone acetyltransferase inhibitors” (Epizyme, Inc., priority 2017, dated 2023):
pIC50: −log10 of the molar value.

What was measured:
[1] = target: KAT-6A (Homo sapiens (Human), UniProt Q92794); assay: KAT-6A biochemical inhibition assay (SAMDI mass spectrometry)
Summary of the method: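 IC50 values came from SAMDI time-of-flight mass spectrometry after formic acid quench (0.5% final). Acetylation ran 90 min at 25 °C with 1 μM acetyl coenzyme A and 1 μM peptide substrate, following compound pre-incubation with 12.5 nM KAT-6A in Tris buffer pH 8.0 containing DTT, 2% DMSO final.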

[2] = target: KAT-7 (Homo sapiens (Human), UniProt O95251); assay: KAT-7 biochemical inhibition assay (SAMDI mass spectrometry)
Sequence of KAT-7 (O95251 other isoform, or with tags, fused parts or gaps): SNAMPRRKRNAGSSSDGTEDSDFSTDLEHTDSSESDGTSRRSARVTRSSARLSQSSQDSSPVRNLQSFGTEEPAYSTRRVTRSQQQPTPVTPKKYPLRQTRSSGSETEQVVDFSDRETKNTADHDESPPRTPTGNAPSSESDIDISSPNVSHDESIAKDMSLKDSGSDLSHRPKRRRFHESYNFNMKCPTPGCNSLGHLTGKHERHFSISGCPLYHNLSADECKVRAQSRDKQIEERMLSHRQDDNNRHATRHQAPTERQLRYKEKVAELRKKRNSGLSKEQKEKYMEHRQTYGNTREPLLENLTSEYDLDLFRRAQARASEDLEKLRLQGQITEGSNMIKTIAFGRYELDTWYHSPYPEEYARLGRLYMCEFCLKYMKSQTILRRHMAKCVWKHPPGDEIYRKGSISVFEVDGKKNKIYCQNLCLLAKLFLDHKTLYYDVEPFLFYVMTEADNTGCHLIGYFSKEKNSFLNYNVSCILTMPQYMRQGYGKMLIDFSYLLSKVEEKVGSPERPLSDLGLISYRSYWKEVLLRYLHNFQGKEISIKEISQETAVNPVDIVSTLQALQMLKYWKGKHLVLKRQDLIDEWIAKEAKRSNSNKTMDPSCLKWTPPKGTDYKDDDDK
Summary of the method: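 Read-out was SAMDI time-of-flight MS of formic acid-quenched reactions (0.5% final). Compound dilutions (2% DMSO final) were pre-incubated with 6 nM KAT-7 in 50 mM Tris pH 8.0 with 1 mM DTT, then given 1 μM peptide substrate and 2 μM acetyl-CoA for 120 min at 25 °C. IC50 values were derived.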

[3] = target: KAT-8 (Homo sapiens (Human), UniProt Q9H7Z6); assay: KAT-8 biochemical inhibition assay (SAMDI mass spectrometry)
Sequence of KAT-8 (Q9H7Z6 other isoform, or with tags, fused parts or gaps): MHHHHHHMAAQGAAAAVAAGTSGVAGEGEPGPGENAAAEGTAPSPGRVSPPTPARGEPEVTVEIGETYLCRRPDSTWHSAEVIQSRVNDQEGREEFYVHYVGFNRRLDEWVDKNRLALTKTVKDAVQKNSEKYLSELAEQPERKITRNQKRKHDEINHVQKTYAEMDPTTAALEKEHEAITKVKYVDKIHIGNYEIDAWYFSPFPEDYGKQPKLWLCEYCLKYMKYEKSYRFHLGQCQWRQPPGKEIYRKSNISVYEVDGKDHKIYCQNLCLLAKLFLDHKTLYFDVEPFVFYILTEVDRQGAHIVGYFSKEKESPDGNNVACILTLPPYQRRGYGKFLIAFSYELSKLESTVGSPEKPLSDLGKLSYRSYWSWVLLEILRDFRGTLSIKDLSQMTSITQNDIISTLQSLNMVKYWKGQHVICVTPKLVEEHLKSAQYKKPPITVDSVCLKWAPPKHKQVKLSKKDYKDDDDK
Summary of the method: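 Acetylation of 1 μM peptide substrate with 5 μM acetyl-CoA by 12.5 nM enzyme, compound pre-incubated, 2% DMSO, Tris pH 8.0 buffer with DTT, 25 °C for 90 min. Quench with 0.5% formic acid; product read by SAMDI mass spectrometry to give IC50.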

[4] = target: KAT-5 (Homo sapiens (Human), UniProt Q92993); assay: KAT-5 biochemical inhibition assay (SAMDI mass spectrometry)
Sequence of KAT-5 (Q92993 other isoform, or with tags, fused parts or gaps): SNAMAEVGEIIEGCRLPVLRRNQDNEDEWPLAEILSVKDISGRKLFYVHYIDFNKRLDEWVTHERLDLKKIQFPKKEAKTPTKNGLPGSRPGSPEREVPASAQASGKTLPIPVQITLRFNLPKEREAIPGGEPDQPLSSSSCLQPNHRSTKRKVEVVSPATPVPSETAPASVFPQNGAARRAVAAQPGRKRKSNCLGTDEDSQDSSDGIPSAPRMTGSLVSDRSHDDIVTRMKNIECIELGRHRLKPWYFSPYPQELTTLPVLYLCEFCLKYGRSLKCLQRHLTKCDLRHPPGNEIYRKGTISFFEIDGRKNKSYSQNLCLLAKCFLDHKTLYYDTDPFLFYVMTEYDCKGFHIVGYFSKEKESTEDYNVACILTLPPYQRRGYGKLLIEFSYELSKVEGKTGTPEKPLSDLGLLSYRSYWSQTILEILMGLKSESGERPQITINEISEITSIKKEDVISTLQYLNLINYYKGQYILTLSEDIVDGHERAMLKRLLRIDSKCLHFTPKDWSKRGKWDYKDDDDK
Summary of the method: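 Acetylation of 1 μM peptide by 9 nM enzyme with 0.5 μM acetyl-CoA (final) was run 90 min at 25° C in Tris pH 8.0 buffer with DTT, after compound preincubation at 2% DMSO. Formic acid stopped the reaction, and product was quantified by SAMDI mass spectrometry to derive IC50.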

Sequence of KAT-6A (Q92794 other isoform, or with tags, fused parts or gaps): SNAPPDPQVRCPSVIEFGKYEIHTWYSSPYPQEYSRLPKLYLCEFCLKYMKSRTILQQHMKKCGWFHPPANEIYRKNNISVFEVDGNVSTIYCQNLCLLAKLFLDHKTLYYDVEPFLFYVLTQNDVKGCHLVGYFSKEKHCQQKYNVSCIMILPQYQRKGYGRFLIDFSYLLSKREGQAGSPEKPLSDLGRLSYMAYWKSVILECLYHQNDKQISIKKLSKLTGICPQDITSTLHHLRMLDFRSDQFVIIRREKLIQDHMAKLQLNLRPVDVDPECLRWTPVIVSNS

pIC50 [1]	pIC50 [2]	pIC50 [3]	pIC50 [4]	SMILES
4.30 to 5.00	> 5.00	4.30 to 5.00	4.30 to 5.00	CCNC(=O)N1CC(CS(=O)(=O)NNC(=O)c2cc(-c3cn(C)cn3)cc(Cl)c2F)C1 [Compound I-168]
> 5.00	> 5.00	4.30 to 5.00	4.30 to 5.00	Cn1cnc(-c2cc(Cl)c(F)c(C(=O)NNS(=O)(=O)CC3CN(C(=O)N4CCC4)C3)c2)c1 [Compound I-169]
> 5.00	> 5.00	4.30 to 5.00	4.30 to 5.00	Cn1cnc(-c2cc(Cl)c(F)c(C(=O)NNS(=O)(=O)CC3CN(S(=O)(=O)C4CCC4)C3)c2)c1 [Compound I-170]
> 5.00	> 5.00	4.30 to 5.00	> 5.00	COc1ccc(CN(C)C(=O)N2CCCC(CS(=O)(=O)NNC(=O)c3cc(-c4cn(C)cn4)cc(Cl)c3F)C2)cc1 (stereo not shown) [Compound I-171]
> 5.00	> 5.00	4.30 to 5.00	> 5.00	CNC(=S)N1CC[C@H](CS(=O)(=O)NNC(=O)c2cc(-c3cn(C)cn3)cc(Cl)c2F)C1 [Compound I-172]
> 5.00	> 5.00	4.30 to 5.00	> 5.00	Cn1cnc(-c2cc(Cl)c(F)c(C(=O)NNS(=O)(=O)C[C@H]3C[C@@H](NS(C)(=O)=O)C3)c2)c1 [Compound I-173]
> 5.00	> 5.00	4.30 to 5.00	> 5.00	COc1ccc(CNC(=O)N[C@H]2C[C@H](CS(=O)(=O)NNC(=O)c3cc(-c4cn(C)cn4)cc(Cl)c3F)C2)cc1 [Compound I-174]
> 5.00	> 5.00	4.30 to 5.00	> 5.00	COc1ccc(CN(C)C(=O)N[C@H]2C[C@H](CS(=O)(=O)NNC(=O)c3cc(-c4cn(C)cn4)cc(Cl)c3F)C2)cc1 [Compound I-175]
> 5.00	> 5.00	4.30 to 5.00	> 5.00	CNC(=O)N[C@H]1CC[C@H](CS(=O)(=O)NNC(=O)c2cc(-c3cn(C)cn3)cc(Cl)c2F)CC1 [Compound I-176]
> 5.00	> 5.00	> 5.00	> 5.00	COc1ccc(CNC(=O)NC2CCC(CS(=O)(=O)NNC(=O)c3cc(-c4cn(C)cn4)cc(Cl)c3F)CC2)cc1 (stereo not shown) [Compound I-177]
> 5.00	> 5.00	4.30 to 5.00	4.30 to 5.00	CCCS(=O)(=O)N1CC(CS(=O)(=O)NNC(=O)c2cc(-c3cn(C)cn3)cc(Cl)c2F)C1 [Compound I-178]
> 5.00	> 5.00	4.30 to 5.00	> 5.00	COc1ccc(CN(C)C(=O)N2CC[C@@H](CS(=O)(=O)NNC(=O)c3cc(-c4cn(C)cn4)cc(Cl)c3F)C2)cc1 [Compound I-179]
> 5.00	> 5.00	4.30 to 5.00	> 5.00	CN(C)C(=O)N[C@H]1C[C@H](CS(=O)(=O)NNC(=O)c2cc(-c3cn(C)cn3)cc(Cl)c2F)C1 [Compound I-180]
> 5.00	> 5.00	4.30 to 5.00	> 5.00	COc1ccc(CNC(=O)N2CCC(CS(=O)(=O)NNC(=O)c3cc(-c4cn(C)cn4)cc(Cl)c3F)C2)cc1 (stereo not shown) [Compound I-181]
> 5.00	> 5.00	4.30 to 5.00	> 5.00	CNC(=S)N1CC[C@@H](CS(=O)(=O)NNC(=O)c2cc(-c3cn(C)cn3)cc(Cl)c2F)C1 [Compound I-183]
> 5.00	> 5.00	4.30 to 5.00	> 5.00	CC(=O)N[C@H]1CC[C@@H](CS(=O)(=O)NNC(=O)c2cc(-c3cn(C)cn3)cc(Cl)c2F)CC1 [Compound I-184]
> 5.00	> 5.00	4.30 to 5.00	4.30 to 5.00	Cn1cnc(-c2cc(Cl)c(F)c(C(=O)NNS(=O)(=O)CC3CN(S(=O)(=O)C4CC4)C3)c2)c1 [Compound I-185]
> 5.00	> 5.00	4.30 to 5.00	> 5.00	CNC(=O)N[C@H]1C[C@@H](CS(=O)(=O)NNC(=O)c2cc(-c3cn(C)cn3)cc(Cl)c2F)C1 [Compound I-186]
> 5.00	> 5.00	4.30 to 5.00	> 5.00	CC(C)NC(=O)N1CCCC(CS(=O)(=O)NNC(=O)c2cc(-c3cn(C)cn3)cc(Cl)c2F)C1 (stereo not shown) [Compound I-187]
4.30 to 5.00	> 5.00	4.30 to 5.00	4.30 to 5.00	CNC(=O)N[C@H]1C[C@H](CS(=O)(=O)NNC(=O)c2cc(-c3cn(C)cn3)cc(Cl)c2F)C1 [Compound I-188]

pIC50 [1]	pIC50 [2]	pIC50 [3]	pIC50 [4]	SMILES
> 5.00	> 5.00	4.30 to 5.00	> 5.00	COCCN(Cc1ccc(OC)cc1)C(=O)N1CCC(CS(=O)(=O)NNC(=O)c2cc(-c3cn(C)cn3)cc(Cl)c2F)C1 (stereo not shown) [Compound I-189]
> 5.00	> 5.00	4.30 to 5.00	> 5.00	COCCNC(=O)N1CCC(CS(=O)(=O)NNC(=O)c2cc(-c3cn(C)cn3)cc(Cl)c2F)C1 (stereo not shown) [Compound I-190]
> 5.00	> 5.00	4.30 to 5.00	> 5.00	CNC(=O)N1CCCC(CS(=O)(=O)NNC(=O)c2cc(-c3cn(C)cn3)cc(Cl)c2F)C1 (stereo not shown) [Compound I-191]
4.30 to 5.00	> 5.00	4.30 to 5.00	4.30 to 5.00	COCCc1nc(-c2cc(Cl)c(F)c(C(=O)NNS(=O)(=O)CC3CCCCC3)c2)cn1C [Compound I-192]
> 5.00	> 5.00	4.30 to 5.00	4.30 to 5.00	CC(C)S(=O)(=O)N1CC(CS(=O)(=O)NNC(=O)c2cc(-c3cn(C)cn3)cc(Cl)c2F)C1 [Compound I-193]
> 5.00	> 5.00	4.30 to 5.00	> 5.00	Cn1cnc(-c2cc(Cl)c(F)c(C(=O)NNS(=O)(=O)C[C@H]3CC[C@H](NC(N)=O)CC3)c2)c1 [Compound I-194]
> 5.00	> 5.00	4.30 to 5.00	> 5.00	CCC(=O)N[C@H]1CC[C@H](CS(=O)(=O)NNC(=O)c2cc(-c3cn(C)cn3)cc(Cl)c2F)CC1 [Compound I-195]
> 5.00	> 5.00	4.30 to 5.00	> 5.00	Cn1cnc(-c2cc(Cl)c(F)c(C(=O)NNS(=O)(=O)C[C@H]3CC[C@H](NC(=O)C4CCC4)CC3)c2)c1 [Compound I-196]
> 5.00	> 5.00	4.30 to 5.00	> 5.00	CC(C)NC(=O)N1CCC(CS(=O)(=O)NNC(=O)c2cc(-c3cn(C)cn3)cc(Cl)c2F)C1 (stereo not shown) [Compound I-198]
> 5.00	> 5.00	4.30 to 5.00	> 5.00	CCC(=O)NC1CCCC(CS(=O)(=O)NNC(=O)c2cc(-c3cn(C)cn3)cc(Cl)c2F)C1 (stereo not shown) [Compound I-199]
> 5.00	> 5.00	> 5.00	> 5.00	Cn1cnc(-c2cc(Cl)c(F)c(C(=O)NNS(=O)(=O)C[C@H]3CC[C@@H](NC(N)=O)CC3)c2)c1 [Compound I-200]
> 5.00	> 5.00	4.30 to 5.00	> 5.00	CC(C)C(=O)N[C@H]1CC[C@H](CS(=O)(=O)NNC(=O)c2cc(-c3cn(C)cn3)cc(Cl)c2F)CC1 [Compound I-201]
> 5.00	> 5.00	4.30 to 5.00	> 5.00	COc1ccc(CN(C)C(=O)N2CC(CS(=O)(=O)NNC(=O)c3cc(-c4cn(C)cn4)cc(Cl)c3F)C2)cc1 [Compound I-202]
> 5.00	> 5.00	4.30 to 5.00	> 5.00	COc1ccc(CNC(=O)N2CC(CS(=O)(=O)NNC(=O)c3cc(-c4cn(C)cn4)cc(Cl)c3F)C2)cc1 [Compound I-203]
4.30 to 5.00	> 5.00	4.30 to 5.00	4.30 to 5.00	CC(C)NC(=O)N1CC(CS(=O)(=O)NNC(=O)c2cc(-c3cn(C)cn3)cc(Cl)c2F)C1 [Compound I-204]
> 5.00	> 5.00	4.30 to 5.00	> 5.00	Cn1cnc(-c2cc(Cl)c(F)c(C(=O)NNS(=O)(=O)CC3CCN(C(N)=O)C3)c2)c1 (stereo not shown) [Compound I-205]
> 5.00	> 5.00	4.30 to 5.00	> 5.00	CC(C)C(=O)NC1CCCC(CS(=O)(=O)NNC(=O)c2cc(-c3cn(C)cn3)cc(Cl)c2F)C1 (stereo not shown) [Compound I-206]
> 5.00	> 5.00	4.30 to 5.00	4.30 to 5.00	Cn1cnc(-c2cc(Cl)c(F)c(C(=O)NNS(=O)(=O)C[C@H]3C[C@H](NC(N)=O)C3)c2)c1 [Compound I-207]
4.30 to 5.00	> 5.00	4.30 to 5.00	4.30 to 5.00	Cn1cnc(-c2cc(Cl)c(F)c(C(=O)NNS(=O)(=O)CC3CN(C(N)=O)C3)c2)c1 [Compound I-208]
4.30 to 5.00	> 5.00	4.30 to 5.00	> 5.00	CNC(=O)N1CC[C@@H](CS(=O)(=O)NNC(=O)c2cc(-c3cn(C)cn3)cc(Cl)c2F)C1 [Compound I-209]
